Values belong to the compound of their own block, whether it stands above or below them.
Assays:
[1] = test system: panel of experts in the sensory evaluation of foods and beverages; experiment: Sensory evaluation of sweetness linger by expert panel; assay type: in vivo; set-up: key: 0: no sweetness linger; 1: very slight sweetness linger; 2: slight sweetness linger; 3: moderate sweetness linger; 4: moderately high sweetness linger; 5: high sweetness linger; settings: for Sweetness Linger rating (defined for controls): ratings defined for the protocol, REBA control sample 500 ppm; for sweetness linger: scale 0-5
Method: Sensory evaluation of the samples prepared in Example Set G was carried out under the following protocol, similar to that described hereinabove. In this test protocol, none of the samples were swallowed. All samples were expectorated and the mouth was rinsed with water after the tasting. Immediately upon sensing maximal sweetness, the sample was expectorated, the mouth was rinsed with water and the rate of sweetness decay (“Sweetness Linger”) was measured, where attention was focused on the sweetness 3-4 min after the water rinse. After sample tasting was complete, a salty oyster cracker was chewed followed by a water rinse, and at least 5 minutes followed before tasting the next sample. The sweetness linger was rated by a panel of experts in the sensory evaluation of foods and beverages using the following scale: 0=no sweetness linger, 1 =very slight sweetness linger, 2 slight sweetness linger, 3=moderate sweetness linger, 4 =moderately high sweetness linger, 5 high sweetness linger.
The “Sweetness Linger” rating for sucrose observed by this protocol is defined as 0. The Sweetness Linger of a 500 ppm of REBA control sample is defined as 5. Experimental samples were tasted by the same protocol, always allowing sufficient time between samples to ensure re-equilibration of the sensory system. Re-tasting of control samples during the course of the experiment was allowed and encouraged.
The comparison taste test was performed between two controls and addition of sweet taste improving additive on the onset and/or sweetness linger.
Sweet taste improving compositions were combined with a REBA solution to determine their effect on sweetness linger. Screening of the initial sample, or further dilutions, allowed identification of concentrations which were just above-threshold, herein defined as “near-threshold concentrations.” The near-threshold additive concentrations, a 6- to 100-fold higher additive concentration (depending on the off-taste intensity), and a mid-level additive concentration (halfway between the near-threshold and higher additive concentration) were evaluated to determine the effect on sweetness linger of a REBA solution. […]
Sensory evaluation using the protocol described in Example Set G then was used to evaluate the sweetness linger of the REBA solutions.

[2] = assay type: physicochemical
Method: A solution of rebaudioside A (>97% pure by HPLC) was prepared in double distilled water (12.5 gm in 50 mL, 25% concentration) by stirring the mixture at 40° C. for 5 minutes. An amorphous form of rebaudioside A was formed by immediately using the clear solution for spray drying with the Lab-Plant spray drier SD-04 instrument (Lab-Plant Ltd., West Yorkshire, U.K.). The solution was fed through the feed pump into the nozzle atomizer which atomized it into a spray of droplets with the help of a constant flow of nitrogen/air. […] This dry powder (11-12 g, H2O 6.74%) was discharged continuously from the drying chamber and was collected in a bottle.

[3] = Rate of dissolution of rebaudioside A polymorphs in H2O; assay type: physicochemical

Compound: OC[C@H]1O[C@@](CO)(O[C@H]2O[C@H](CO)[C@@H](O)[C@H](O)[C@H]2O)[C@@H](O)[C@@H]1O [sugar, sucrose, reference compound]
Sweetness Linger rating (defined for controls) [1]: 0

Compound: rebaudioside A
sweetness linger ([1]; Example Set G: 400 ppm REBA in citric acid/potassium citrate composition equivalent to that in a diet lemon-lime beverage, sweetness 3-4 min after water rinse): 5 | sweetness linger ([1]; Example Set H: 500 ppm REBA (H41: 360 ppm) in carbon-treated water, phosphoric acid (75%) to pH 2.4-2.5): 5 | Sweetness Linger rating (defined for controls) [1]: 5

solubility in water at room temperature [2]: > 35.0%
Compound: rebaudioside A [F]

Rate of dissolution in H2O at 25° C. [3]: Very low (<0.2%/ %/60 minutes
Compound: rebaudioside A [Form 1]
